Measurements published in ChEMBL document CHEMBL1201862, “PubChem BioAssay data set” (2004).
Active and inactive are the calls of the source.

How the values were obtained:
fMet-Leu-Phe receptor = fMet-Leu-Phe receptor (Homo sapiens, UniProt P21462); assay: formyl peptide receptor binders – dose response (AID 519); type: functional
[1] = biological target: T1, Oxysterols receptor LXR-beta (Homo sapiens, UniProt P55055); type: functional, cell-based;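 further: agonist activity at LXR measured by a cell-based luminescence readout across a dose range, run as a counterscreen for daf-12 agonists; HEK293 cells with Gal4-LXR fusion and GAL4-driven luciferase reporter; potency for activation of Gal4-LXR reporter so compounds are agonists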
T1 sequence (P55055 whole entry): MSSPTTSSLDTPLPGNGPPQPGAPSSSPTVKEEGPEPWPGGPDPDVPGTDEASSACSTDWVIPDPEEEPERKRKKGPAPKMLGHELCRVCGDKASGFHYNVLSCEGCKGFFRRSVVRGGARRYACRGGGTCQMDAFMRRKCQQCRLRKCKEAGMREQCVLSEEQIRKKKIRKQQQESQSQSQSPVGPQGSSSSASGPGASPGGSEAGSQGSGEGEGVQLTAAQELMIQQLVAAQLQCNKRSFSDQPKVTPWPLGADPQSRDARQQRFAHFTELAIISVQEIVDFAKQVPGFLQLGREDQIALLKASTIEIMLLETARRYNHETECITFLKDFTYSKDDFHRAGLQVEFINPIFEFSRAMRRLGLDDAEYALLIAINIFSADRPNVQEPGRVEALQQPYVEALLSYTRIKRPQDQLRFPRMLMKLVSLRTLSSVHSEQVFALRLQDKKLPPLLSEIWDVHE

[2] = luciferase reporter signal suppression in cells – H4 neuroglioma cells, luminescence, dose response (AID 1990); type: functional, cell-based
[3] = Luminescence Cell-Based Dose Response HTS to Identify Inhibitors of 5'UTR Stem-Loop Driven Prion Protein mRNA Translation in H4 Neuroglioblastoma Cells. [Related pubchem assays: 1827 (Project Summary), 1813 (Primary HTS)]; type: functional
[4] = biological target: T2, Heat shock factor protein 1 (Mus musculus, UniProt P38532); assay: decrease of HSF1-responsive luciferase luminescence – cell-based, NIH3T3, dose retest, confirmation (AID 2382); type: functional;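 further: NIH3T3 fibroblasts with HSF1-driven luciferase reporter stressed by proteasome inhibitor MG132; luminescence from HSF1-driven luciferase expression after 8 hours of MG132 stress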
T2 sequence (P38532 whole entry): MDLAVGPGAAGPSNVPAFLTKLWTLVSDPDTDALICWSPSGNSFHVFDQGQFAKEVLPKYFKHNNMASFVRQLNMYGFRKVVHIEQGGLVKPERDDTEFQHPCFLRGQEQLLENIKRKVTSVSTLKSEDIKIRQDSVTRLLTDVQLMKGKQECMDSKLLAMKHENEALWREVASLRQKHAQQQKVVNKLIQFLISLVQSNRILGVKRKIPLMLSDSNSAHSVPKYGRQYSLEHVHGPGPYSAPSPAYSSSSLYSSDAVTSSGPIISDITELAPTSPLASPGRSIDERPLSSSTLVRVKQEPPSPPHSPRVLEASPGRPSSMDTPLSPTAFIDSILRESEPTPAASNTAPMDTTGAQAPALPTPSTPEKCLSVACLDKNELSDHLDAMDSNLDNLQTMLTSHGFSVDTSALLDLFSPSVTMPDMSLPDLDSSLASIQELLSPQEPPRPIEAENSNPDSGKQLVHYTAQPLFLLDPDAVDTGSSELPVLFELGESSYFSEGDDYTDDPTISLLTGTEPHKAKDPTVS

[5] = alpha-synuclein stem-loop luciferase translation blockers – H4 neuroglioma cells, luminescence, confirmation (AID 1988); type: functional, cell-based
[6] = A549 cell cytotoxicity, dose response, cytotoxicity control, plate reader, cherry-pick, antagonist series (AID 743412); type: functional, cell-based
[7] = toxicity toward HepG2 liver cells – cell-based, plate reader, cherry-pick, antagonist series, cytotoxicity control, dose response (AID 743416); type: functional
[8] = blockers of bursicon-stimulated LGR2 cAMP reporter – cell-based, HEK293, CRE-luciferase reporter, cherry pick, set 2, dose response (AID 743343); type: functional;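 further: transfected cells were stimulated with diluted bursicon conditioned medium after compound addition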
[9] = blockade of melanocortin 4 receptor signaling – cell-based, plate reader, cherry pick, counter-screen for LGR2 antagonist project, dose response (AID 743444); type: functional;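 further: transfected HEK 293 cells stimulated with alpha-MSH peptide; potency of inhibitors of the alpha-MSH evoked signal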
[10] = viability loss in HEK293 cells – cell-based, plate reader, cherry-picked samples, cytotoxicity control, dose response (AID 743446); type: functional
[11] = biological target: Endoplasmic reticulum aminopeptidase 1 (Homo sapiens, UniProt Q9NZ08); assay: inhibition of human ERAP1 enzyme activity – biochemical, cherry-pick, set 2, plate reader, dose response (AID 743314)
[12] = biological target: COUP transcription factor 2 (Homo sapiens, UniProt P24468); assay: Luminescence-based cell-based high throughput dose response assay to identify inhibitors of COUP-TFII (NR2F2).; type: functional;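 further: HEK293 cells transiently cotransfected with COUP-TFII expression vector and reporter; luciferase reporter luminescence driven by COUP-TFII from the pX2-168 reporter plasmid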
[13] = tested on: Streptococcus sp. 'group A'; assay: Streptococcus pyogenes SK(-)GAS viability under kanamycin – luminescence, BacTiterGlo, confirmation, counter-screen for streptokinase expression inhibitor project, dose response (AID 1900); type: functional, organism-based
Streptokinase A = biological target: T3, Streptokinase A (Streptococcus pyogenes serotype M1, UniProt P10520); assay: viability-normalized secreted streptokinase activity reduction – plasminogen activation absorbance, OD405, dose response (AID 1914); type: functional, Streptococcus pyogenes M1 GAS;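 further: secreted streptokinase activity via plasminogen activation per viability signal from cell pellet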
T3 sequence (P10520 whole entry): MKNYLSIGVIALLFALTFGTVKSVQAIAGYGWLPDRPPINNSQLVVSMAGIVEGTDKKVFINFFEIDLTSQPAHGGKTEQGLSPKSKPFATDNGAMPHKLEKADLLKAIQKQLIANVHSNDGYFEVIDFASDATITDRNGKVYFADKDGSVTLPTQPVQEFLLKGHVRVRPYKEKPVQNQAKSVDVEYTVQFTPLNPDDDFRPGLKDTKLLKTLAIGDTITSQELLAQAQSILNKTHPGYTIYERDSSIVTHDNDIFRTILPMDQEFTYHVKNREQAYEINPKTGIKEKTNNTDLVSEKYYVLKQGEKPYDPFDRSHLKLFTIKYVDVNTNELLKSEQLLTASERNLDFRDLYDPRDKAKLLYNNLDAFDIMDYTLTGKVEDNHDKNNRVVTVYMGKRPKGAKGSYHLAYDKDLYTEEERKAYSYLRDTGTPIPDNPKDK

[14] = Trypanosoma cruzi growth suppression in host cells – NIH3T3 host cells, beta-gal luminescence, confirmation (AID 2044); type: functional, cell-based;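 further: intracellular parasites grown in NIH/3T3 mouse fibroblasts as host cells; luminescent beta-galactosidase reporter signal from transgenic T. cruzi replicating inside host cells; inhibitors lower the luminescence signal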
[15] = biological target: Induced myeloid leukemia cell differentiation protein Mcl-1 (Homo sapiens, UniProt Q07820); type: functional
Streptococcus = assay: GAS UMAA2166 growth inhibition – luminescence, BacTiterGlo, counter-screen for streptokinase expression inhibitor project, dose response (AID 1915); type: functional, organism-based;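 further: potency for reduction of bacterial viability or growth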
[16] = biological target: T4, Replicative DNA helicase DnaB (Mycobacterium tuberculosis, UniProt P9WMR3); assay: DnaB intein splicing inhibitors, dose response, biochemical, cell-free fluorescence (AID 449749); type: functional
T4 sequence (P9WMR3 whole entry): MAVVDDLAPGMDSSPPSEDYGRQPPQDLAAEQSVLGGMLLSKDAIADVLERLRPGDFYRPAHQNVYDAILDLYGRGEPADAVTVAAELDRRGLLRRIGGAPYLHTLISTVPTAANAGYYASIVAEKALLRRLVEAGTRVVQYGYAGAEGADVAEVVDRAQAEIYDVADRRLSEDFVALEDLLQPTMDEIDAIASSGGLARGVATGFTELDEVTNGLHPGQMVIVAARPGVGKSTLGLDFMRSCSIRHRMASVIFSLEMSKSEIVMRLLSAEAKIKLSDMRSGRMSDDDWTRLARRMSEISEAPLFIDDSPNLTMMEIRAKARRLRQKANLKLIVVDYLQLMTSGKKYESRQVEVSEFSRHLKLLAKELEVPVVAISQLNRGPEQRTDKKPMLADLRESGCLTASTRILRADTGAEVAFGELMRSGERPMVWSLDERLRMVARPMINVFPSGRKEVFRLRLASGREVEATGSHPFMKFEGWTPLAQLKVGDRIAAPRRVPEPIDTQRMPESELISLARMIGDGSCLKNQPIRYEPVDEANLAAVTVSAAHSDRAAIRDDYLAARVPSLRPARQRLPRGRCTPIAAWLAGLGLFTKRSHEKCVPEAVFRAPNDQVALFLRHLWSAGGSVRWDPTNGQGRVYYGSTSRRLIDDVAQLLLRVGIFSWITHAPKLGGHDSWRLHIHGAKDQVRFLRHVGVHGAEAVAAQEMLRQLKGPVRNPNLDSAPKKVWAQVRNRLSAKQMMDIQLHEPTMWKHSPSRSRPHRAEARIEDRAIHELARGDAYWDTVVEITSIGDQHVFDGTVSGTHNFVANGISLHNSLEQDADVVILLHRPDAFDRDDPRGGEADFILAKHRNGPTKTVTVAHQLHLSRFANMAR

Protein RecA = biological target: T5, Protein RecA (Mycobacterium tuberculosis, UniProt P9WHJ3); assay: Fluorescence Cell-Free Homogeneous Dose Retest to Identify Inhibitors of RecA-Intein Splicing Activity. [Related pubchem assays (depositor defined):AID2097, AID2223, AID489010, AID492950]; type: functional
T5 sequence (P9WHJ3 whole entry): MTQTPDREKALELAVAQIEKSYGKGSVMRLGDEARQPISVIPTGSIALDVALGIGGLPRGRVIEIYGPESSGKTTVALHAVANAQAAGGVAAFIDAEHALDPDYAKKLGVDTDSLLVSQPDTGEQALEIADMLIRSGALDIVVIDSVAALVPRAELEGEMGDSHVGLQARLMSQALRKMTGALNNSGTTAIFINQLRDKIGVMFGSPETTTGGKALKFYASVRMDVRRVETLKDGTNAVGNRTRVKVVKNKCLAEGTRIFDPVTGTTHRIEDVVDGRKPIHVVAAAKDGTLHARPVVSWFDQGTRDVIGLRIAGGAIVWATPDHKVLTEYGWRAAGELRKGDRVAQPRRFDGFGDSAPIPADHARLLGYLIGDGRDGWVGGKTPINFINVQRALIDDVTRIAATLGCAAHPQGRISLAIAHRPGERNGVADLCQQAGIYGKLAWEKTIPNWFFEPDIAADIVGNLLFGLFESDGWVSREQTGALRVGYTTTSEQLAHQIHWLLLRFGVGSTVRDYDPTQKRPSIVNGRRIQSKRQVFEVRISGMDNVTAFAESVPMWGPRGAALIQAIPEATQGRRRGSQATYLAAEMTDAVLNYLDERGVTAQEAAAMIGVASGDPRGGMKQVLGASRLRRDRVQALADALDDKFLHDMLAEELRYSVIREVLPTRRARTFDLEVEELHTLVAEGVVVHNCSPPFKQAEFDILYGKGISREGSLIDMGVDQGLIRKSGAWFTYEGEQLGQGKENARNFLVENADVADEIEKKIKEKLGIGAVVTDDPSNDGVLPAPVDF

Mu-type opioid receptor = Mu-type opioid receptor (Homo sapiens, UniProt P35372); type: functional, cell-based;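 further: U2OS cells with beta-arrestin recruitment to OPRM1 by beta-gal complementation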
[17] = biological target: 5-hydroxytryptamine receptor 2A (Mus musculus, UniProt P35363); type: functional, cell-based;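 further: CHO-K1 cells with tagged receptor and beta-arrestin; agonist potency measured as compound-induced activation of the receptor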
Paired box protein Pax-8 = Paired box protein Pax-8 (Homo sapiens, UniProt Q06710); assay: PAX8 transcriptional activity inhibition in RMG-I – RMG-I cells, luciferase, cherry-pick, dose response (AID 687027); type: functional, cell-based;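 further: luciferase reporter driven by Pax8 target thyroperoxidase promoter measured by SteadyGlo luminescence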
[18] = general cell-killing toxicity readout – plate reader, dry powder samples, cytotoxicity control for PAX8 inhibitor project, dose response (AID 743021); type: functional, cell-based

COUP transcription factor 2, sequence (P24468 whole entry): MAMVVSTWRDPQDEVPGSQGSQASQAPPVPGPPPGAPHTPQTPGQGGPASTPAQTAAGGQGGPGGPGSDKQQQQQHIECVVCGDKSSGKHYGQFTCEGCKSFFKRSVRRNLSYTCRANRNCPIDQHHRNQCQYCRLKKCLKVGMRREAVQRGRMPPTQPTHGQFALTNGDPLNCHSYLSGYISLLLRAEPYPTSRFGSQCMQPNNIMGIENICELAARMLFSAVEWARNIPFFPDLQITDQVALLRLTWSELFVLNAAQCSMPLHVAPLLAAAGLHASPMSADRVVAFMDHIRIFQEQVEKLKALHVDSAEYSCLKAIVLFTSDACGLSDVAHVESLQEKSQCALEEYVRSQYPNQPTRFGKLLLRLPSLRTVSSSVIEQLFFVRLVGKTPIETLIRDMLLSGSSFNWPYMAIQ
Paired box protein Pax-8, sequence (Q06710 whole entry): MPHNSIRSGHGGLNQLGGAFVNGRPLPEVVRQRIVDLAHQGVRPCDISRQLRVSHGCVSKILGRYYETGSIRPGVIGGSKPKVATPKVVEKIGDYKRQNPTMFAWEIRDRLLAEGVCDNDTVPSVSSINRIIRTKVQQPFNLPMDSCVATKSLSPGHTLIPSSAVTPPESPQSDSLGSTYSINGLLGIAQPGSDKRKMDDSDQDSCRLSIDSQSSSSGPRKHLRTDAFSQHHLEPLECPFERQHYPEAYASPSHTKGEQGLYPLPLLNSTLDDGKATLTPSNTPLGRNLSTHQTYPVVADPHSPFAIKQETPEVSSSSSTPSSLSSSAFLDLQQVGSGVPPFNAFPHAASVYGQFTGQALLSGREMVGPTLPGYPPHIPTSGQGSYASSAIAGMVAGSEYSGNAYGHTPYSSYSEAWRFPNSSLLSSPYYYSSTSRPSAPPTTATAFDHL
Endoplasmic reticulum aminopeptidase 1, sequence (Q9NZ08 whole entry): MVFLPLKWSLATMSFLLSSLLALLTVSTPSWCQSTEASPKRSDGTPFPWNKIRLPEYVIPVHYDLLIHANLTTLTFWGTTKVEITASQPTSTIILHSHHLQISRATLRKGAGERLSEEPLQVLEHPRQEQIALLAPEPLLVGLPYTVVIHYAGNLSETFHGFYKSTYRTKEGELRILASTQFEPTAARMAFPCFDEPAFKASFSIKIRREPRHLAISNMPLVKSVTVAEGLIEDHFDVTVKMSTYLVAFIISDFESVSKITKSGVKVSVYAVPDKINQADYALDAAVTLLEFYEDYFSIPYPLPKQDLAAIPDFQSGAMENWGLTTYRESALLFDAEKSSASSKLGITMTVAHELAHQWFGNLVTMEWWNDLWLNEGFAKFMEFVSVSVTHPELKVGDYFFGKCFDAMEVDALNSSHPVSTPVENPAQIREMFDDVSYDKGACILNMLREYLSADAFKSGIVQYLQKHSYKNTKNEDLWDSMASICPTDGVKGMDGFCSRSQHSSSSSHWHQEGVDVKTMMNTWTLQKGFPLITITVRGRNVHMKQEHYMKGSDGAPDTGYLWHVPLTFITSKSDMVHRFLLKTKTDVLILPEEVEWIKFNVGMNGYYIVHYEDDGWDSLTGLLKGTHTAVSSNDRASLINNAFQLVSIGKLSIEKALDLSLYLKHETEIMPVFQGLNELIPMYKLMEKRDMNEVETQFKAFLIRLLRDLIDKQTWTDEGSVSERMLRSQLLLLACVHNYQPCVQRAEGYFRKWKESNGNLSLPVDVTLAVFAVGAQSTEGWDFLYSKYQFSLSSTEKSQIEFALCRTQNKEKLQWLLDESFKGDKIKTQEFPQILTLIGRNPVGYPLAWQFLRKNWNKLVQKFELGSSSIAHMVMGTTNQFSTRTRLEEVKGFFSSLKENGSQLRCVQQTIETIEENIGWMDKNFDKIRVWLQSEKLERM
fMet-Leu-Phe receptor, sequence (P21462 whole entry, the tested form may be a part): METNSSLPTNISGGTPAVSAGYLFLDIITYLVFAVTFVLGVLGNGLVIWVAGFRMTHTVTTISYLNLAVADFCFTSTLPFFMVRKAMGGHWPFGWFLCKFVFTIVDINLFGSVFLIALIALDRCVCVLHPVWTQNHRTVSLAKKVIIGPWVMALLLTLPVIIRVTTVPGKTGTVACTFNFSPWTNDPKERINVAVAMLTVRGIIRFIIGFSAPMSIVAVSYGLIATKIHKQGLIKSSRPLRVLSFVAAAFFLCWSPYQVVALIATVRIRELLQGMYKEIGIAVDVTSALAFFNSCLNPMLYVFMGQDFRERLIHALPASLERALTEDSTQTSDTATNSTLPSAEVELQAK
Mu-type opioid receptor, sequence (P35372 whole entry): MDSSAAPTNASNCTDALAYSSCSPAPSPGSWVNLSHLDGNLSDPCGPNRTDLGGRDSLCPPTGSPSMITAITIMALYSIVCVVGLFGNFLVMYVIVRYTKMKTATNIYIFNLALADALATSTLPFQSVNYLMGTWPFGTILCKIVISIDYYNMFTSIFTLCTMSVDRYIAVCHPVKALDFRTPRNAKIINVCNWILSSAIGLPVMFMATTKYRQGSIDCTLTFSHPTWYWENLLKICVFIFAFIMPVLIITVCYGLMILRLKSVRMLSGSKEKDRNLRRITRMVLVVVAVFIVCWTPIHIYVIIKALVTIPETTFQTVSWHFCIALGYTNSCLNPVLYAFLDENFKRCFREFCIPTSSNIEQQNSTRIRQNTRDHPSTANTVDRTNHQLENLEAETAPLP
5-hydroxytryptamine receptor 2A, sequence (P35363 whole entry): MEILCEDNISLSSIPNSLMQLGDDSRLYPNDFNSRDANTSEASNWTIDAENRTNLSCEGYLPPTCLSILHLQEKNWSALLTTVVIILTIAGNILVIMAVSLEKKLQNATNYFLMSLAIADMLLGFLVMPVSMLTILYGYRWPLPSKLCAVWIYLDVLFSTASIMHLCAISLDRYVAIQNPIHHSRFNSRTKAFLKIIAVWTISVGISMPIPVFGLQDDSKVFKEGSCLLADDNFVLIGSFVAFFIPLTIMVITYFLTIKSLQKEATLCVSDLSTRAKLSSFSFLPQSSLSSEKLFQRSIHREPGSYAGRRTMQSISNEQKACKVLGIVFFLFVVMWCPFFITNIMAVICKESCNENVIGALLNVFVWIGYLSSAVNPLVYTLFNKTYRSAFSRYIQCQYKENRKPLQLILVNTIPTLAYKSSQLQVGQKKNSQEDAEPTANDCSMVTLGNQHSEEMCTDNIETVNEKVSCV
Induced myeloid leukemia cell differentiation protein Mcl-1, sequence (Q07820 whole entry): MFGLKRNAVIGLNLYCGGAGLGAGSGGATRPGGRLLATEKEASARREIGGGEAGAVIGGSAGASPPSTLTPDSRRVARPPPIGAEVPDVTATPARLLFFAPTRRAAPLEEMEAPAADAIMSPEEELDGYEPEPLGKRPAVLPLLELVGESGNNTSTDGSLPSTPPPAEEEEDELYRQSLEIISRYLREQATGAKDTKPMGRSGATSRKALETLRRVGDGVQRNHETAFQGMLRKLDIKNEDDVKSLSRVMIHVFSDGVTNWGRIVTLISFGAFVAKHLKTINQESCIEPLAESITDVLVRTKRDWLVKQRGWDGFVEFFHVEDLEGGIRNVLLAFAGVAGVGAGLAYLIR

Which Ki (fMet-Leu-Phe receptor) does the source give for `COc1ccc(Cl)cc1-n1c(=S)sc2c(O)nc(SCC(=O)NCC3CCCO3)nc21` (stereo not drawn) here?
The Ki was 9.3 µM (active).

Which EC50 [1] does the source give for `CCOC(=O)c1csc(-c2sccc2Br)n1` here?
Its EC50 is > 67.6 µM (inactive).

With `c1c2c(cc3sc(N4CCCCC4)nc13)OCCO2` as the compound, how does the EC50 [2] read?
The EC50 was > 120 µM (not active).

What about the EC50 [3] of the same compound?
Its EC50 is 8.9 µM (active).

And the EC50 [4]?
The EC50 was 11.5 µM (active).

And the EC50 [5]?
The EC50 was 8.83 µM (active).

And the AC50 [6]?
The AC50 was 32.9 µM (active).

And the AC50 [7]?
Its AC50 is 30.7 µM (active).

What about the AC50 [8] of the same compound?
Its AC50 is 1.58 µM (active).

And the AC50 [9]?
The AC50 was 1.97 µM (active).

What about the AC50 [10] of the same compound?
Its AC50 is 13.6 µM (active).

With `O=C(NCCc1ccncc1)[C@H]1N[C@H]2c3ccc(/C=C/c4ccccc4)c(=O)n3C[C@H]2[C@@H]1CO` as the compound, how does the AC50 [11] read?
The AC50 was 14.1 µM (active).

Which IC50 [12] does the source give for `NC(=O)[C@H]1CC2(CC(c3cccc(NC(=O)COc4ccc(Cl)cc4)c3)=NO2)CN1C(=O)Cc1ccc([N+](=O)[O-])cc1` (stereo partly drawn) here?
Its IC50 is 5.32 µM (active).

With `Cc1cc(N/N=C/c2ccc(O)c(C)c2O)nc(-c2ccccc2O)n1` as the compound, how does the EC50 [2] read?
Its EC50 is > 60 µM (not active).

And the EC50 [13]?
The EC50 was 4.48 µM (active).

What about the EC50 [3] of the same compound?
Its EC50 is 13.1 µM (active).

And the EC50 [4]?
The EC50 was 3.71 µM (active).

And the EC50 [5]?
Its EC50 is > 120 µM (not active).

And the EC50 (Streptokinase A)?
The EC50 was > 150 µM (not active).

And the EC50 [14]?
Its EC50 is 1.1 µM (active).

And the IC50 [15]?
Its IC50 is 3.3 µM (active).

And the EC50 (Streptococcus)?
The EC50 was 8.71 µM (active).

What about the AC50 [16] of the same compound?
The AC50 was > 380 µM (inactive).

What about the EC50 (Protein RecA) of the same compound?
The EC50 was > 380 µM (inconclusive).

And the EC50 (Mu-type opioid receptor)?
The EC50 was 92.5 µM (inactive).

What about the EC50 [17] of the same compound?
The EC50 was 7.6 µM (active).

And the AC50 (Paired box protein Pax-8)?
Its AC50 is 4.54 µM (active).

What about the AC50 [18] of the same compound?
Its AC50 is 14.1 µM (active).
